The results in this text go back to patent publication US11207301B2, “Sphingosine 1 phosphate receptor agonists for neuroprotection” (RECEPTOS LLC, priority 2017, dated 2021).

Experiment [1] has as its system cuprizone-induced mouse model of demyelination. As to the kind of experiment: Cuprizone-induced mouse model of demyelination / neuroprotection. The experiment is classed as in vivo, C57BL/6 mice. An excerpt:
The effect of a S1P receptor agonist on spinal cord axial demyelination or reduction in axonal breaks can be assessed by measuring concentration of neurofilament light chain (NfL) in the plasma. NfL is released to the plasma following axonal injury and degeneration. Histological examination of axons with antineurofilament H non-phosphorylated mouse antibody SMI-32 can also be used to assess axonal demyelination or breaks. NfH is phosphorylated in healthy axons and unphosphorylated in damaged axons. In addition, the effects of ozanimod on the CNS were examined in vivo using the cuprizone-induced mouse model of demyelination and in vitro in primary rodent astrocytes. Efficacy of ozanimod or compound (2-R) was examined in the cuprizone-induced mouse model of neuroprotection. C57BL/6 mice were treated with cuprizone (0.3% weight/weight orally) and rapamycin (10 mg/kg intraperitoneally daily) to demyelinate axons in the brain and concurrently treated with ozanimod (0.1, 0.3, or 1 mg/kg) or compound (2-S) (1 mg/kg) by daily oral gavage to investigate its neuroprotective activity. Neuroprotection was assessed through examination of axonal pathology in the corpus callosum using SMI-32 (antineurofilament H non-phosphorylated mouse monoclonal antibody) staining, functional assessment through kinematic gait analysis and the plasma biomarker neurofilament light chain (NfL). Further, direct activity of ozanimod was examined in resting and activated primary rodent astrocytes in vitro.

The test system of experiment [2] is relapsing multiple sclerosis (RMS) patients. As to the kind of experiment: Brain volume loss in phase 3 RMS studies SUNBEAM and RADIANCE Part B vs interferon beta-1a. The experiment is classed as in vivo, human. An excerpt:
As mentioned above, ozanimod is in clinical development for treatment of relapsing multiple sclerosis (RMS). Brain volume loss (BVL) correlates with and predicts disability and is thought to be a marker of long-term disease progression and cognitive impairment. Accordingly, reducing BVL is an important treatment goal. In this example, BVL results are reported from two similarly-designed phase 3 RMS studies.
SUNBEAM (N=1346) and RADIANCE Part B (N=1320) were randomised, double-blind, double-dummy, active-controlled, parallel-group studies of the efficacy (primary outcome annualised relapse rate) and safety of once-daily ozanimod 1 mg or 0.5 mg vs intramuscular interferon beta-1a (IFNβ-1a) 30 μg for ≥12 months (m) (SUNBEAM) or 24 m (RADIANCE). BVL was evaluated using the Jacobian integration method to assess changes in normalised whole brain, cortical grey matter, and thalamic volumes. Rank analysis of covariance was performed with treatment effects reported as percent reductions in median percent BVL from baseline.

Setting [3] is: RADIANCE (24 m), 1 mg once daily, p<0.0001.
The mark [4] stands for this setting: SUNBEAM (12 m), 1 mg once daily, p<0.0001.

Consider `CC(C)Oc1ccc(-c2nc(-c3cccc4c3CC[C@@H]4NCCO)no2)cc1C#N` [Ozanimod], for which, in experiment [1] (0.1, 0.3, or 1 mg/kg vs vehicle (FIG. 3)), the “overall kinematic gait score” value is on record as “significantly improved overall kinematic gait score”. Also, the kinematic gait result in experiment [1] (cuprizone-induced demyelinated mice vs vehicle, 1 mg/kg (FIG. 2)) is given as “improved kinematic gait”. Further, in experiment [1] (cuprizone-induced mouse model), the “neuroprotection, reduction in swollen and transected axons” value was “neuroprotective”. Moreover, the “slowing of cortical grey matter loss with respect to IFN” value turned out to be 55.1% in experiment [2] (RADIANCE (24 m), 0.5 mg once daily, p<0.0001); 58.3% in experiment [2] (setting [3]); 61.4% in experiment [2] (SUNBEAM (12 m), 0.5 mg once daily, p<0.0001); 83.8% in experiment [2] (setting [4]). In addition, the “slowing of whole BVL vs IFN” value in experiment [2] (RADIANCE (24 m), 0.5 mg once daily, p=0.0001) is recorded as 24.5%; in experiment [2] (setting [3]), 26.6%; in experiment [2] (SUNBEAM (12 m), 0.5 mg once daily, p=0.0615) it was 12.3%; in experiment [2] (setting [4]), 32.5%. The “slowing of thalamic BVL vs IFN” value in experiment [2] (RADIANCE (24 m), 0.5 mg once daily, p=0.0008) is given as 30.1%; in experiment [2] (setting [3]) it was 31.9%; in experiment [2] (SUNBEAM (12 m), 0.5 mg once daily, p=0.0001), 34.3%; in experiment [2] (setting [4]), 38.5%.
